Publication PMC4330097, “Competitive Binding of a Benzimidazole to the Histone-Binding Pocket of the Pygo PHD Finger” (ACS Chemical Biology, 2014)
One block for each molecule: values may come before it. No end group written: not given here. Me2 = dimethyl on the lysine side chain (dimethyllysine)

Key:
[1] = target: T1, Pygo2 PHD finger (PHD–HD1 complex) (Homo sapiens, UniProt Q9BRQ0); experiment: HSQC NMR chemical shift perturbation; assay type: binding; parameters: PHD–HD1 complex; with B9L HD1 (BCL9L)
T1 sequence (Q9BRQ0 327-387): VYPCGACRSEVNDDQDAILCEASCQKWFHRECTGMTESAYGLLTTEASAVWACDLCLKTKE
T1 sequence (Q86UU0 235-263 partner): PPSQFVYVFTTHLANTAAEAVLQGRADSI

[2] = target: T1, Pygo2 PHD finger (PHD–HD1 complex); experiment: biochemical; parameters: PHD–HD1 complex; with B9L HD1 (BCL9L); 15N-HSQC NMR titration of 15N-labelled PHD-HD1; Kd from chemical shift perturbations
Excerpt: […]. […] Nevertheless, we asked whether CF16 could compete with a native histone H3 tail peptide for binding to the PHD–HD1 complex.

[3] = target: T1, Pygo2 PHD finger (PHD–HD1 complex); experiment: HSQC NMR titration, intermolecular NOEs, NMR competition with H3 peptide; assay type: binding; parameters: with B9L HD1 (BCL9L)
Excerpt: HSQC NMR titration, intermolecular NOEs, NMR competition with H3 peptide on Pygo2 PHD finger (PHD–HD1 complex) | estimated affinities of CF16 and CF18 for the K4me pocket appear to be lower

[4] = target: T1, Pygo2 PHD finger (PHD–HD1 complex); experiment: HSQC NMR titration, intermolecular NOEs; assay type: binding; parameters: with B9L HD1 (BCL9L)
[5] = target: T2, histone H3 tail pentapeptide ARTKme2Q (Homo sapiens); experiment: NMR HSQC titration
T2 chain: ARTK(Me2)Q

Molecule: CCn1c(NCCN2CCOCC2)nc2ccccc21 [CF17]
HSQC NMR chemical shift perturbation [1]: CF14, CF16, and CF17 produced altogether distinct CSP patterns

Kd [2]: 2.9 mM
Molecule: Nc1nc2cc3c(cc2s1)OCCO3 [CF7]

Molecule: CCn1c(N)nc2ccccc21 [CF16]
Kd [3]: ~7.3 mM

Molecule: CN(C)CCn1c(N)nc2ccccc21 [CF18]
Kd [4]: ~14.7 mM

Kd [5]: 0.528 mM
B1: Pygo2 PHD–B9L HD1 complex 327-387+235-263 (protein)
chain 1: AASAPPPPDKLEGGGGPAPPPAPPSTGRKQGKAGLQMKSPEKKRRKSNTQGPAYSHLTEFAPPPTPMVDHLVASNPFEDDFGAPKVGVAAPPFLGSPVPFGGFRVQGGMAGQVPPGYSTGGGGGPQPLRRQPPPFPPNPMGPAFNMPPQGPGYPPPGNMNFPSQPFNQPLGQNFSPPSGQMMPGPVGGFGPMISPTMGQPPRAELGPPSLSQRFAQPGAPFGPSPLQRPGQGLPSLPPNTSPFPGPDPGFPGPGGEDGGKPLNPPASTAFPQEPHSGSPAAAVNGNQPSFPPNSSGRGGGTPDANSLAPPGKAGGGSGPQPPPGLVYPCGACRSEVNDDQDAILCEASCQKWFHRECTGMTESAYGLLTTEASAVWACDLCLKTKEIQSVYIREGMGQLVAANDG
chain 2: MRILANKTRLPHPRRREAPGSPPLSPRGHCPPAPAKPMHPENKLTNHGKTGNGGAQSQHQNVNQGPTCNVGSKGVGAGNHGAKANQISPSNSSLKNPQAGVPPFSSLKGKVKRDRSVSVDSGEQREAGTPSLDSEAKEVAPRSKRRCVLERKQPYSGDEWCSGPDSEEDDKPIGATHNCNVADPAMAAPQLGPGQTTQLPLSESSVPGAPHGPPPGLRPDAPGGGGGGGGVPGKPPSQFVYVFTTHLANTAAEAVLQGRADSILAYHQQNVPRAKLDQAPKVPPTPEPLPLSTPSAGTPQSQPPPLPPPPPPAPGSAPPALPPEGPPEDSSQDLAPNSVGAASTGGGTGGTHPNTPTATTANNPLPPGGDPSSAPGPALLGEAAAPGNGQRSLVGSEGLSKEQLEHRERSLQTLRDIERLLLRSGETEPFLKGPPGGAGEGGPPAQAPPPPQQPPTAPPSGLKKYEEPLQSMISQTQSLGGPPLEHEVPGHPPGGDMGQQMNMMIQRLGQDSLTPEQVAWRKLQEEYYEEKRRKEEQIGLHGSRPLQDMMGMGGMMVRGPPPPYHSKPGDQWPPGMGAQLRGPMDVQDPMQLRGGPPFPGPRFPGNQIQRVPGFGGMQSMPMEVPMNAMQRPVRPGMGWTEDLPPMGGPSNFAQNTMPYPGGQGEAERFMTPRVREELLRHQLLEKRSMGMQRPLGMAGSGMGQSMEMERMMQAHRQMDPAMFPGQMAGGEGLAGTPMGMEFGGGRGLLSPPMGQSGLREVDPPMGPGNLNMNMNVNMNMNMNLNVQMTPQQQMLMSQKMRGPGDLMGPQGLSPEEMARVRAQNSSGVMGGPQKMLMPSQFPNQGQQGFSGGQGPYQAMSQDMGNTQDMFSPDQSSMPMSNVGTTRLSHMPLPPASNPPGTVHSAPNRGLGRRPSDLTISINQMGSPGMGHLKSPTLSQVHSPLVTSPSANLKSPQTPSQMVPLPSANPPGPLKSPQVLGSSLSVRSPTGSPSRLKSPSMAVPSPGWVASPKTAMPSPGVSQNKQPPLNMNSSTTLSNMEQGTLPPSGPRSSSSAPPANPPSGLMNPSLPFTSSPDPTPSQNPLSLMMTQMSKYAMPSSTPLYHNAIKTIATSDDELLPDRPLLPPPPPPQGSGPGISNSQPSQMHLNSAAAQSPMGMNLPGQQPLSHEPPPAMLPSPTPLGSNIPLHPNAQGTGGPPQNSMMMAPGGPDSLNAPCGPVPSSSQMMPFPPRLQQPHGAMAPTGGGGGGPGLQQHYPSGMALPPEDLPNQPPGPMPPQQHLMGKAMAGRMGDAYPPGVLPGVASVLNDPELSEVIRPTPTGIPEFDLSRIIPSEKPSSTLQYFPKSENQPPKAQPPNLHLMNLQNMMAEQTPSRPPNLPGQQGVQRGLNMSMCHPGQMSLLGRTGVPPQQGMVPHGLHQGVMSPPQGLMTQQNFMLMKQRGVGGEVYSQPPHMLSPQGSLMGPPPQQNLMVSHPLRQRSVSLDSQMGYLPAPGGMANLPF
